# Laboratory results: US9758445B2, “Preparation of surfactants via cross-metathesis” (MATERIA, INC., priority 2013, dated 2017)
# Read-outs that look alike come from different tables or passages of the source.
# What was measured:
# [1] = Krafft Point from the abrupt increase in electrical conductivity as a function of temperature; assay type: physicochemical
# Protocol: Krafft Point or Krafft Temperature is defined as the […]. Surfactants form micelles above their Krafft Point and the solubility in water increases abruptly. The Krafft point was determined by the abrupt increase in the electrical conductivity of as a function of temperature. The intersection of the two solubility lines is the Krafft Point.
# [2] = Critical Micelle Concentration (CMC) from the electrical conductivity-concentration curve at constant temperature; assay type: physicochemical; conditions: at 22.0° C.
# Protocol: The Critical Micelle Concentration (CMC) is defined as the concentration of surfactants above which micelles form and all additional surfactants added to the system go to micelles. The CMC is measured by the electrical conductivity-concentration curve at constant temperature.
# [3] = Surface tension above CMC; assay type: physicochemical
# [4] = purity 91%; N. M. van Os et al. Tenside Surf. Det. 1992, 29 175; cited from earlier work
# [5] = at 20° C.; purity 91%; N. M. van Os et al. Tenside Surf. Det. 1992, 29 175; cited from earlier work
structure (smiles),measurement,setting,value
"CCCCCCCCC(C)c1ccc(S(=O)(=O)O)cc1 (centres unmarked) [2-PhC10 LAS, sodium 4-(decan-2-yl)benzenesulfonate]",Krafft Point,[1],22.5 °C
same,CMC (mmol/L) at Temp (° C.),[2],4.4 at 22.0 °C mmol/L
same,Surface Tension,[3],43 dynes/cm
same,Krafft Point,[4],22.0 °C (NR^2)
same,CMC (mmol/L) at Temp (° C.),[5],4.5 at 20 °C mmol/L
